Literature values as cited in US9937154B2, “Use of telmisartan to prevent and treat graft versus host disease and other alloimmune and autoimmune diseases” (Hackensack University Medical Center, priority 2015, dated 2018).
Read-outs that look alike come from different tables or passages of the source.

What was measured:
ROCK = details: cited from earlier work
rat colitis = details: chemically induced acute colitis, cited from earlier work
lymphocyte chemotaxis = details: in part SDF-1 induced chemotaxis; cited from earlier work
[1] = system: corneal neovascularization; details: corneal systems; cited from earlier work
[2] = system: Tregs:autoreactive Th17 cells; details: cited from earlier work
[3] = system: patients with mild to moderate hypertension; details: cited from earlier work
cytochrome P450 enzymes = details: cited from earlier work
CYP2C19 = CYP2C19 (Homo sapiens, UniProt P33261); details: in vitro; cited from earlier work
CYP2C19, sequence (P33261 whole entry): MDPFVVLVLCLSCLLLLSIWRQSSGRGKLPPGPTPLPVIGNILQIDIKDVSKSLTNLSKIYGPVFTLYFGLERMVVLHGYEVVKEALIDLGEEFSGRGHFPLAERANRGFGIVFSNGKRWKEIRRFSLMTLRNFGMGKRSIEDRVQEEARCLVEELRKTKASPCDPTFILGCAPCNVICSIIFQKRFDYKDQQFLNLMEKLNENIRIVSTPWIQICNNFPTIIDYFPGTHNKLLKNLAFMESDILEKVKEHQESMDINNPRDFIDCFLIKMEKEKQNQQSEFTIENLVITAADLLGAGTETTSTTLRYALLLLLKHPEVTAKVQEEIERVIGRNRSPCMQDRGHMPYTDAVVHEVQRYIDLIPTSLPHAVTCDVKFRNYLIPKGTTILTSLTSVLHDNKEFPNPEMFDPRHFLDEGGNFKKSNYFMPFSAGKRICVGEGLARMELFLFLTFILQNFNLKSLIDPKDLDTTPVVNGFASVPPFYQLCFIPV

[4] = cited from earlier work
[5] = cited from earlier work; remark: listed apart in the source
[6] = 80 or 160 mg per day; cited from earlier work
[7] = system: patients treated with MICARDIS; details: cited from earlier work
[8] = system: plasma proteins, mainly albumin and orosomucoid; details: cited from earlier work

SMILES: CCCc1nc2c(C)cc(-c3nc4ccccc4n3C)cc2n1Cc1ccc(-c2ccccc2C(=O)O)cc1 [Telmisartan, telmisartan]
- potency as ROCK inhibitor compared with Y-27632 (ROCK): as potent an inhibitor of ROCK as Y-27632
- effect on colitis (rat colitis; listed as telmisartan): anti-inflammatory effects
- effect on colitis (rat colitis): protective effect against rat colitis
- lymphocyte chemotaxis (lymphocyte chemotaxis): abrogate lymphocyte chemotaxis
- neovascularization [1]: prevent neovascularization
- ratio of protective Tregs:autoreactive Th17 cells [2]: increase the ratio
- DBP reduction from baseline after placebo subtraction ([3]; 20 mg once daily): ~6 mm Hg
- SBP reduction from baseline after placebo subtraction ([3]; 20 mg once daily): 6-8 mm Hg
- DBP reduction from baseline after placebo subtraction ([3]; 40 mg once daily): 6-8 mm Hg
- SBP reduction from baseline after placebo subtraction ([3]; 40 mg once daily): 9-13 mm Hg
- DBP reduction from baseline after placebo subtraction ([3]; 80 mg once daily): 7-8 mm Hg
- SBP reduction from baseline after placebo subtraction ([3]; 80 mg once daily): 12-13 mm Hg
- time to maximal blood pressure reduction ([3]; after initiation of treatment): ~4 weeks
- incidence of symptomatic orthostasis ([3]; after the first dose, all controlled trials): 0.04%
- metabolism by the cytochrome P450 system (cytochrome P450 enzymes): not metabolized
- effects in vitro on cytochrome P450 enzymes (cytochrome P450 enzymes; except CYP2C19): no effects
- inhibition of CYP2C19 (CYP2C19): some inhibition
- reduction in AUC by food ([4]; 40 mg tablet): about 6%
- reduction in AUC by food ([4]; 160 mg dose): about 20%
- terminal elimination half-life ([4]; in vivo): approximately 24 hours
- volume of distribution ([4]; in vivo): approximately 500 liters
- amount found in urine ([5]; intravenous administration): 0.91 % of total radioactivity
- administered dose eliminated unchanged in feces via biliary excretion ([5]; intravenous or oral 14C-labeled telmisartan): > 97%
- amount found in urine ([5]; oral administration): 0.49 % of total radioactivity
- incidence of reported poor tolerability [6]: 0.5%
- incidence of cough ([7]; 6 placebo-controlled trials, identical to placebo): 1.6%
- incidence of back pain ([7]; n = 1455): 3%
- incidence of diarrhea ([7]; n = 1455): 3%
- incidence of pharyngitis ([7]; n = 1455): 1%
- incidence of sinusitis ([7]; n = 1455): 3%
- incidence of upper respiratory tract infection ([7]; n = 1455): 7%
- discontinuation of therapy because of adverse events ([7]; of 1455 patients, placebo-controlled clinical trials): 2.8%
- bound to plasma proteins [8]: > 99.5%
